{"source": "patent US10213527B2", "about": "“Functionalized titanium binding peptides and implants coated with same” (Ben-Gurion University of the Negev Research and Development …, priority 2012, dated 2019)", "key": {"[1]": {"experiment": "Adsorption isotherm onto TiO2 particles, Sips equation fitting", "type": "binding", "conditions": "10 mM TBS pH 7.4, 1 h room temperature; Sips fit", "protocol": "The adsorption of all three peptides to TiO2 particles were measured with peptides solution in a range of concentrations from 0.002 to 0.524 mM in 10 mM TBS solution. TiO2 particles were suspended in TBS 10 mM, pH 7.4, to a final concentration of 1.8 mg/ml. To each test tube containing 0.5 ml of peptide at different concentrations, 0.5 ml of TiO2 particles solution was added. The samples were continuously mixed with a tube rotator for 1 h at room temperature. To precipitate the TiO2 particles, the test tubes were centrifuged at 5000 rpm for 3 minutes and the absorption of the supernatant was measured at 280 nm using a microplate-reader (BioTek instruments). Peptide concentration was determined based on calibration curve of each peptide prepared in TBS solution. In order to describe the adsorption of molecules on TiO2 particles surface the sips equation, also known as the Langmuir-Freundlich equation (1), was used:\n[formula] where S is the amount of adsorbed molecules (mol m^−2), Smax is the maximum amount of molecules adsorbed (mol m^−2), C is their concentration is solution at equilibrium (mM), k is the association coefficient (M^−1) and α is the constant representing this distribution.^30\nPeptide adsorption and desorption conditions were characterized by HPLC. A column was packed with micrometer size particles of the TiO2 anatase phase (see Materials and Methods). […]"}, "[2]": {"experiment": "Calcium-phosphate adsorption on peptide coated TiO2 surfaces (XPS)", "conditions": "Ca—P solution 24 h at 37° C.; FIG. 17B", "protocol": "Surfaces were incubated in TBS solution for 45 min in room temperature, and then the surfaces were incubated in 0.4 mg ml^−1 peptide-TBS 10 mM solution for 1 hr at room temperature and were dried with nitrogen. Peptide coating were analyzed by XPS.\nThe ability to absorb calcium-phosphate (Ca—P) ions by the different peptide coatings were measured using Ca—P solution. The solution was prepared at physiological pH and contained K2HPO4 (1.0 mM), CaCl2.2H2O (2.5 mM), dissolved consecutively in deionized water at 37° C. and buffered at pH ˜7.4 using 50 mM Trizma™ base and an appropriate volume of 1M HCl. Coated surfaces were incubated in Ca—P solution at 37° C. for 24 h.\nHowever it contradicts the β-cpSer adsorption isotherm result. This phenomenon can be explained by the different surface topography and surface area between TiO2 particles and TiO2 surface, adsorption surface area at adsorption isotherm experiment is 1.123 m^2 and the surface area is 10^−4 m^2. At small surface areas, the difference between peptides' adsorption cannot be observed. In order to examine the influence of the Glu tail on calcified mineralization process, titanium oxide surfaces were coated with pSer peptide or with the control peptides (cpSer or β-cpSer) and incubated for 24 hours inside calcium-phosphate solution (see Materials and Methods). Atomic concentrations of calcium and phosphorus were compared with titanium as measured by XPS."}, "[3]": {"experiment": "Adsorption of sodium phenyl phosphate dibasic to TiO2 microparticles (solution depletion)", "type": "binding", "set-up": "Difference in concentration of the solution between the initial and the final one: unit: mg/ml", "conditions": "TiO2 microparticles 1.8 mg/ml, TBS", "protocol": "Several solutions of sodium phenyl phosphate dibasic with different concentrations, dissolved in the same TBS, were allowed to adsorb to TiO2 microparticles (1.8 mg/ml in 1 ml). Table 6, herein below lists the initial concentrations and the difference in concentration of the solution between the initial and the one following adsorption. According to Table 6, the phenyl phosphate adsorbs only at concentrations lower than 0.25 mg/ml probably because at higher concentrations the compound undergoes some aggregation and stays only in the solution. This adsorption behavior is unusual and therefore no binding affinity constants were determined."}, "[4]": {"experiment": "HPLC chromatography on TiO2 anatase microparticle column (Example 2)", "type": "binding", "conditions": "0.4 mg/ml in TBS (10 mM, pH=7.4) loading buffer", "protocol": "A stainless steel (4.6×50 mm) column was packed with TiO2 anatase (Sachtopore NP 10μ/100 Å, particle size/pore size respectively) suspended in methanol. The packed column was washed consecutively with water and 0.1 M NaOH to desorb surface contaminants. The column was then pre-equilibrated with the loading/running buffer. The chromatographic process was performed on a HPLC system (Algient Technologies, 1260 Infinity, Germany). Peptides dissolved in the loading/running buffer (0.4 mg/ml) were sonicated for 10 minutes and centrifuged at […] for 8 minutes and were injected to the TiO2 column at a flow rate of 0.02 ml/min to attain ˜40 minutes retention time for adsorption. 10 mM tris buffered saline pH 7.4 (TBS) was used as adsorption/running media. After 65 minutes, the flow rate was increased to 0.5 ml/min. Elution was carried out by gradients of 200 mM sodium bicarbonate solution pH 7.4 and 0.1 M NaOH. Elution was monitored at 280 nm. All solutions were filtered using 0.2 μm filters (Millipore, Badford, Mass.).\nPeptide adsorption and desorption conditions were characterized by HPLC. A column was packed with micrometer size particles of the TiO2 anatase phase (see Materials and Methods). Tris buffer saline (TBS), pH 7.4, served as a loading buffer. […]"}, "[5]": {"experiment": "Chromatography of PpSer on TiO2 anatase column (bicarbonate and NaOH elution gradients)", "type": "binding", "from_the_text": "Chromatography on TiO2 Surfaces: as described in Golan Gertler, Gideon Fleminger and Hanna Rapaport. Langmuir 2010, 26(9), 6457-6463, and further illustrated in FIG. 3. Stainless steel (4.6_50 mm) column was packed with TiO2 anatase (Sachtopore NP 10μ/100 A°, particle size/pore size respectively) suspended in methanol. The packed columns were washed consecutively with water and 0.1 M NaOH to desorb surface contaminants. The columns were then pre-equilibrated with the running buffer. Lyophilized peptides were dissolved in the running buffer (0.2 mg/mL) and centrifuged at 5000 g for 5 min prior to injection into the column to remove possible aggregates. The supernatants (100 μL) were injected on to the TiO2 column at a flow rate of 0.02 mL/min to attain 40 min retention time for adsorption. After 65 minutes, the flow rate was increased to 0.5 mL/min. Ten millimolar Tris and phosphate buffer solutions, pH 7.4, were used as adsorption (running) media. In addition, these buffers complemented by 150 mM NaCl (TBS, PBS, respectively) were also examined. Elution was carried out by gradients of the following solutions applied consecutively to the column: 1 M NaCl, 80% acetonitrile, 200 mM sodium phosphate, and 0.1 M NaOH, monitored at 215-280 nm. The chromatograms were obtained at room temperature using 0.2 μm filtered (Millipore, Badford, Mass.) solutions.\nThe peptide dissolved in two different running buffer, Tris buffer saline (TBS) and sodium bicarbonate saline (BCS). The affinity of functional groups to TiO2 from previous works was known to be PO4^−3>HCO3^−>COO^−. (The diagonal line in the chromatography is the elution gradient: 0-200 mM sodium bicarbonate & 0-0.1M NaOH).\nPeptides that bind to TiO2 only through Glutamic acid functional groups will elute in BC gradient, however peptides that bind to TiO2 through pSer functional groups will elute in the NaOH gradient.\nThe idea behind using BCS as running buffer is to block the surface with carbonate ions before the peptide injection."}, "[6]": {"conditions": "BCS (sodium bicarbonate saline) running buffer, FIG. 7B"}}, "note": "“Also recorded” adds a separate entry of the source. Non-standard residues stand in square brackets, D forms with d. Residues, ends and D or L forms follow the SMILES beside them. No end group written: not given here. pS = N[C@@H](COP(=O)(O)O)C(=O)O", "data": [{"compound": "Pro-Ser(phos)-Ser(phos)-Phe-Trp-(Gly)3 (P[pS][pS]FWGGG) [β-cpSer]", "values": [{"measurement": "Smax, maximum amount of molecules adsorbed to TiO2 surface", "setting": "[1]", "result": "7.48E−7", "unit": "mol · m^−2"}, {"measurement": "calcium and phosphate adsorbed by coated surfaces (atomic ratio of P and Ca to Ti)", "setting": "[2]", "result": "approximately the same calcium and phosphate concentrations"}]}, {"compound": "O=P([O-])([O-])Oc1ccccc1.[Na+].[Na+]", "note": "[sodium phenyl phosphate dibasic]", "values": [{"measurement": "Difference in concentration of the solution between the initial and the final one", "setting": "[3]; 0.0625 mg/ml in adsorbing solution", "result": 0.02365}, {"measurement": "Difference in concentration of the solution between the initial and the final one", "setting": "[3]; 0.125 mg/ml in adsorbing solution", "result": 0.02083}, {"measurement": "Difference in concentration of the solution between the initial and the final one", "setting": "[3]; 0.25 mg/ml in adsorbing solution", "result": 0.008776}, {"measurement": "Difference in concentration of the solution between the initial and the final one", "setting": "[3]; 0.5 mg/ml in adsorbing solution", "result": "~0"}, {"measurement": "Difference in concentration of the solution between the initial and the final one", "setting": "[3]; 1 mg/ml in adsorbing solution", "result": "~0"}, {"measurement": "concentrations at which the compound adsorbs to TiO2 microparticles", "setting": "[3]", "result": "lower than 0.25 mg/ml"}]}, {"compound": "Pro-Ser(phos)-Phe-Ser(phos)-Trp-(Gly)3-(Glu)5 (P[pS]F[pS]WGGGEEEEE) [pSer]", "values": [{"measurement": "calcium and phosphate adsorbed by coated surfaces (atomic ratio of P and Ca to Ti)", "setting": "[2]", "result": "significantly higher calcium and phosphate concentration; also recorded: adsorbs more Ca and P ions"}]}, {"compound": "Pro-pSer-Phe-pSer-Trp-(Gly)3 (P[pS]F[pS]WGGG) [cpSer, control peptide lacking the stretch of the Glu residues]", "values": [{"measurement": "calcium and phosphate adsorbed by coated surfaces (atomic ratio of P and Ca to Ti)", "setting": "[2]", "result": "approximately the same calcium and phosphate concentrations"}]}, {"compound": "Trp-Glu", "values": [{"measurement": "adsorption to the oxide", "setting": "[4]", "result": "does not adsorb"}]}, {"compound": "O=C(O)CC[C@H](NC(=O)[C@H](CCC(=O)O)NC(=O)[C@H](CCC(=O)O)NC(=O)[C@H](CCC(=O)O)NC(=O)[C@H](CCC(=O)O)NC(=O)CNC(=O)CNC(=O)CNC(=O)[C@H](Cc1c[nH]c2ccccc12)NC(=O)[C@H](COP(=O)(O)O)NC(=O)[C@H](Cc1c[nH]c2ccccc12)NC(=O)[C@H](COP(=O)(O)O)NC(=O)[C@@H]1CCCN1)C(=O)O", "note": "[PpSer, Pro-pSer-Trp-pSer-Trp-(Gly)3-(Glu)5] (H-P[pS]W[pS]WGGGEEEEE-OH; N-terminus and C-terminus assumed)", "values": [{"measurement": "fraction of the peptide able to displace the carbonate ions and bind TiO2 through pSer", "setting": "[5]; [6]", "result": "⅔ and two-thirds"}, {"measurement": "fraction of the peptide that can't displace the carbonate ions, bonded to them, eluted at BC gradient", "setting": "[5]; [6]", "result": "⅓ and about one third"}, {"measurement": "mode of binding to TiO2 on the column", "setting": "[5]; TBS running buffer, 10 mM pH 7.4, FIG. 7A", "result": "bonded to TiO2 through pSer functional groups"}]}]}
